According to patent US20230374112A1, “Bioactive Collagen Peptides, Method Of Production Thereof, And Use Thereof” (CORPORATION GENACOL CANADA INC., priority 2020, published 2023):
Read-outs that look alike come from different tables or passages of the source. Non-standard residues stand in square brackets, D forms with d. Residues, ends and D or L forms follow the SMILES beside them. No end group written: not given here. Hyp = O=C(O)[C@@H]1C[C@@H](O)CN1

Assays:
[1] = cited from earlier work
[2] = target: dipeptidyl peptidase-4 (DPP-IV) (Homo sapiens, UniProt P27487); conditions: literature; cited from earlier work
dipeptidyl peptidase-4 (DPP-IV), sequence (P27487 whole entry, species assumed): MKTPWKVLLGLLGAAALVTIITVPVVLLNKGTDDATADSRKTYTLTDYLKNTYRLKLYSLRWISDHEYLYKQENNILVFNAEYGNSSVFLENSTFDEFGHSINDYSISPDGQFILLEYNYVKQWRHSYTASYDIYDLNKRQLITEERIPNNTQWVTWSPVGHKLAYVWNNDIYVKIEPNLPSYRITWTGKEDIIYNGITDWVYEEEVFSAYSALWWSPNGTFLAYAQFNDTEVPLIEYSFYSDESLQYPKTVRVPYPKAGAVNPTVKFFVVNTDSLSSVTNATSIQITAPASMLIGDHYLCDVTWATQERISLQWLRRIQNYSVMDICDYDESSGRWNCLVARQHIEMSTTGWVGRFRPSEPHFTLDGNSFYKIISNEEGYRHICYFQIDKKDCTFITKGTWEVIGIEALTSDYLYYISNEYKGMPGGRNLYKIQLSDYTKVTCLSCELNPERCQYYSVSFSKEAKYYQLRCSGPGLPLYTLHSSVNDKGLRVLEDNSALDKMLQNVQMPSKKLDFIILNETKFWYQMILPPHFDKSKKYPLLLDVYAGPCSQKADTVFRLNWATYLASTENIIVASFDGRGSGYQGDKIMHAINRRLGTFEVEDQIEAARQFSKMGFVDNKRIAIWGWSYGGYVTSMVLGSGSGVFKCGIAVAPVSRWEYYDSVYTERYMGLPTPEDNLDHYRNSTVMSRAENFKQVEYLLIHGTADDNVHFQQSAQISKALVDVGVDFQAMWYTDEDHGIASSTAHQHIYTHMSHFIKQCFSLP

[3] = system: HIEC-6/HepG2 cell coculture system
Procedure: Based on the daily dose used in the clinical trials and the current recommendations of the bottle, 1200 mg of Genacol CH product (bovine) or a generic CH product (bovine) was added (3% w/v) to sterile ddH2O (Bernado & Azarcon, 2012; Bruyère et al., 2012; Feliciano et al., 2017). Three independent digestions for each CH product were completed. The vessels were placed in a 37° C. water bath, with continuous agitation. A pepsin solution was added, the pH adjusted to 2 and incubated for 30 min. Then, a bile solution was added, the pH adjusted to 7.5 and incubated for 90 min at 37° C. Pepsin (4% w/w protein basis) and pancreatin (4% w/w protein basis) were added (Aleman et al., 2013). The pancreatin digestion was stopped with the addition of NaOH, until the pH was 10 and the resulting digesta was cooled and frozen at −80° C. Digesta subsamples were taken and filtered using 0.2 μm syringe filters.
The final digesta was filtered using a molecular weight cut off (MWCO) of 10 kDa in a stirred Amicon™ ultrafiltration membrane reactor at 4° C. under a nitrogen gas pressure of 40 psi (Iskandar et al., 2015). The filtrates were freeze-dried at −50 to −60° C. and 0.85 mBar (0.64 mm Hg) (Gamma 1-16 LSC, Christ, Osterode am Harz, Germany) and stored at −80° C. until used in cell culture.
Two bovine-sourced CH products were used: Original Formula® (Genacol, Blainville, QC) (CH-GL) and a generic brand (such as Selection™, Uniprix, Quebec, Canada) (CH-GR). HIEC-6 (ATCC® CRL-3266™) and Hep G2 (ATCC® HB-8065™) cells were purchased from ATCC to represent the gastrointestinal and liver wall lining, respectively. HIEC-6 cells were cultured using OptiMEM™ 1 Reduced Serum Medium (Gibco Catalog No. 31985) with 20 mM HEPES, 10 mM GlutaMAX™ (Gibco Catalog No. 35050), 10 ng/mL Epidermal Growth Factor, 4% fetal bovine serum (FBS). HepG2 cells were grown using ATCC-formulated Eagle's Minimum Essential Medium (Catalog No. 30-2003), with 10% FBS. Cells were maintained at 37° C. with 90% relative humidity (RH) and 5% C02 in culture medium as described herein.
HIEC-6/HepG2 cell coculture system was used to determine the bioavailability of key bioactive peptides from CHs after digestion. HIEC-6 and HepG2 cells were cultured separately but then later combined in a transwell system.
HIEC-6 cells were seeded onto 24-well polyester (PET) ThinCert™ inserts from Greiner Bio-One (Kremsmünster, Austria) at a density of 1×10^5 cells/well. The medium was changed every 2 days and the cells were grown for a total of 8-9 days. Transepithelial electrical resistance (TEER) was measured using a volt-ohmmeter to assess integrity of monolayer. […] Three individual plate experiments were completed for each CH product.
At time 0, the apical medium was replaced with medium containing 2 mg/ml of freeze-dried CH dissolved in medium using either the Genacol (GL) peptide or the Generic (GR) CH products. HepG2 cells were added to the basolateral side of the transwell (1 million cells/mL). The plates were incubated for 2 h at 37° C., 5% C02. Subsamples were taken at time 0, and after 2 h.

[4] = system: Caco-2 cells; conditions: cited from earlier work
[5] = human, in vivo, po, 80 mg/kg; cited from earlier work

Molecule: SDK
- permeability ([1]; not told): 21.68%

Molecule: LPYPY
- permeability ([1]; milk-derived peptides, literature): 0.05%

Molecule: YPY
- permeability ([1]; not told): 5.56%

Molecule: Gly-Ala-[Hyp]
- activity against DPP-IV [2]: only Gly-Pro-Hyp showed any activity

Molecule: C[C@H](N)C(=O)N1C[C@H](O)C[C@H]1C(=O)O [Ala-Hyp] (H-Ala-[Hyp]-OH; N-terminus and C-terminus assumed)
- Peptide concentration, Basolateral T0 [3]: 0 ± 0 µg/mL

Molecule: HLPLP
- permeability ([1]; not told): 0.018%

Molecule: NCC(=O)N1CCC[C@H]1C(=O)O [Gly-Pro] (H-Gly-Pro-OH; N-terminus and C-terminus assumed)
- Peptide concentration, Basolateral T0 [3]: 0 ± 0 µg/mL

Molecule: NCC(=O)N1CCC[C@H]1C(=O)N1C[C@H](O)C[C@H]1C(=O)O [Gly-Pro-Hyp] (H-Gly-Pro-[Hyp]-OH; N-terminus and C-terminus assumed)
- Peptide concentration, Basolateral T0 [3]: 0 ± 0 µg/mL
- percentage transported across the cell monolayer [4]: 3.59%
- greatest content found in the blood [5]: ~22 µM
- time of peak blood content [5]: 1 h

Molecule: Gly-Pro-Ala
- activity against DPP-IV [2]: only Gly-Pro-Hyp showed any activity

Molecule: O=C(O)[C@@H]1C[C@@H](O)CN1C(=O)[C@@H]1CCCN1 [Pro-Hyp] (H-Pro-[Hyp]-OH; N-terminus and C-terminus assumed)
- Peptide concentration, Basolateral T0 [3]: 0 ± 0 µg/mL
